Test system: 14-3-3
Assay: Binding of p53 peptides to 14-3-3, isoform not given
Conditions: isoform not specified; wild-type p53CT tested up to 200 µM; pS392 by AUC

For “WT TC (293–393): wild-type tetramerization plus C-terminal domains of p53 (293–393), semi-synthetic”, the “binding to 14-3-3 (in words)” value was “very weak binding”.
